From patent US8173694B2, “Therapeutic agent” (Pentraxin Therapeutics Limited, priority 2001, dated 2012)

Columns and labels:
[1] = target: serum amyloid P component (SAP) (Homo sapiens, UniProt P02743); assay: Inhibition of SAP binding to amyloid fibrils in vitro
Excerpt: A method for screening and testing inhibitors of serum amyloid P component (SAP) binding to amyloid fibrils in vitro was devised and used in collaboration with F Hoffmann-La Roche Ltd to identify a suitable lead molecule for drug development. A library of candidate compounds was screened accordingly. The subsequent collaborative medicinal chemistry programme led to synthesis of a family of dicarboxylic acid, pyrrolidone ring containing molecules, of which the most studied is (R)-1-[6-(R)-2-Carboxy-pyrrolidin-1-yl]-6-oxo-hexanoyl]pyrrolidine-2-carboxylic acid. This molecule and related compounds (EP-A-0915088) are modestly potent inhibitors of SAP binding to amyloid fibrils in vitro, with IC50 values around 0.5-1.0 μM.
Further studies determined that each of the following bis-D-Proline compounds were tested for their ability to deplete SAP in vivo as described above. Each of the compounds identified below successfully depleted SAP. In addition, certain of the compounds were further tested for in vitro inhibition of binding of SAP to amyloid fibrils in accordance with the protocol provided in EP 0915088 at page 10, as referenced above. The results are shown in the second column below, where applicable.

[2] = target: T1, plasma SAP (Homo sapiens, UniProt P02743); assay: Intravenous infusion for 48 h in patients: plasma SAP by electroimmunoassay; format: in vivo
T1 construct: from tissue; host or cells: plasma of patients in vivo
T1 sequence (P02743 20-223): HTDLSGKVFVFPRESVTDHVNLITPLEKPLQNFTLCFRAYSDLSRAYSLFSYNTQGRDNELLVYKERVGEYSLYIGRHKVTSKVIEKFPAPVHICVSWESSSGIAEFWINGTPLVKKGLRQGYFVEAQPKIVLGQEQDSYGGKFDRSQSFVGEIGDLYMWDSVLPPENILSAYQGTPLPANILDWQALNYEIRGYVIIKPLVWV
Protocol: Patients with different forms of systemic amyloidosis, and with varying amyloid loads received the doses of the drug shown for a period of 48 h. Circulating SAP values were measured by electroimmunoassay (24) in samples taken during and after the infusion, at the times shown. Each line represents a different individual patient.
(R)-1-[6-(R)-2-Carboxy-pyrrolidin-1-yl]-6-oxo-hexanoyl]pyrrolidine-2-carboxylic acid was administered for 48 h by intravenous infusion to 8 patients with systemic amyloidosis (7 with AL and one with AA type), one patient with minor localised AL amyloidosis, and one who is a carrier of the amyloidogenic Ala60 transthyretin variant but has no clinical amyloidosis. […] In initial studies with slow continuous infusion, the SAP concentration started to fall when about 2 mg of (R)-1-[6-(R)-2-Carboxy-pyrrolidin-1-yl]-6-oxo-hexanoyl]pyrrolidine-2-carboxylic acid had been given, and in subsequent studies this amount was therefore injected as a bolus at the outset, followed by infusion at the rates shown (FIG. 4). […] However, after drug infusion had ceased, the plasma SAP concentration rapidly returned to normal in the individuals with little or no amyloid, whereas this recovery was markedly delayed in subjects with significant amyloidosis. In the one patient with a very heavy amyloid load, the plasma SAP concentration remained below 25% of its initial value 20 days after the infusion. Most of the daily production of SAP, which is about 50-100 mg per day (15), was evidently distributing into the amyloid deposits before becoming available to replete the plasma pool. This is very strong indirect evidence that even such a brief infusion of (R)-1-[6-(R)-2-Carboxy-pyrrolidin-1-yl]-6-oxo-hexanoyl]pyrrolidine-2-carboxylic acid had substantially depleted the amyloid-associated SAP.
Two individual patients with systemic amyloidosis and moderate amyloid loads received (R)-1-[6-(R)-2-Carboxy-pyrrolidin-1-yl]-6-oxo-hexanoyl]pyrrolidine-2-carboxylic acid (desapin) by intravenous infusion at the steady rates shown. Circulating SAP concentrations started to fall almost immediately and had halved when the concentrations of drug and SAP protomer were equimolar.
The potency of (R)-1-[6-(R)-2-Carboxy-pyrrolidin-1-yl]-6-oxo-hexanoyl]pyrrolidine-2-carboxylic acid in depleting circulating SAP was remarkable, with SAP values falling when the concentration ratio of drug to SAP pentamer in the plasma approached equimolar (FIG. 7). […] This is evidently the species recognised as abnormal and promptly cleared by the liver.

Sequence of serum amyloid P component (SAP) (P02743 20-223): as above

IC50 ([1]; read-out: IC50, inhibition of SAP binding to amyloid fibrils in vitro): 0.5 to 1 µM | SAP clearance from plasma by the end of the infusion ([2]; 0.25 mg/kg/day and all higher rates up to 6 mg/kg/day): almost completely cleared | Plasma SAP concentration, of its initial value ([2]; 20 days after the infusion, one patient with very heavy amyloid load): below 25% | SAP depletion ([2]; infusion rate 0.1 mg/kg/day): slower and less complete | Amount of drug given when SAP concentration started to fall ([2]; slow continuous intravenous infusion): about 2 mg | Circulating SAP concentration when drug and SAP protomer concentrations were equimolar ([2]; two patients, 48 h intravenous infusion): halved
SMILES: O=C(O)[C@H]1CCCN1C(=O)CCCCC(=O)N1CCC[C@@H]1C(=O)O [(R)-1-[6-(R)-2-Carboxy-pyrrolidin-1-yl]-6-oxo-hexanoyl]pyrrolidine-2-carboxylic acid]
Potency as inhibitor of SAP binding to amyloid fibrils relative to original lead compound ([1]; compared with 1-(3-Mercapto-2-methyl-1-oxopropyl)-D-proline): more potent inhibitors than the original lead compound | Depletion of circulating SAP ([2]; 48 h intravenous infusion, all 10 subjects): dramatic, rapid, and consistent depletion
